In PMC5414855 (Toxicological Sciences, 2017):

Tests used:
[1] = tested on: zebrafish AHR1A, AHR1B, and AHR2; test: Antisense morpholino knockdown, any of the morpholinos; type: in vivo
AHR1A = test: Antisense morpholino knockdown of AHR1A in Tg; type: in vivo, zebrafish; conditions: for cyp1a/GFP expression in the livers in AHR1A morphants: single concentration
zebrafish embryos [2] = conditions: zebrafish embryos exposed 6 to 120 hpf; beyond the range of concentrations tested and beyond the range of accuracy of the EC50 model
zebrafish embryos [3] = test: animal or person; conditions: Danio rerio, read-out: EC50, calculated value beyond the range of concentrations tested, zebrafish embryos exposed 6 to 120 hpf; beyond the range of concentrations tested and beyond the range of accuracy of the EC50 model
[4] = tested on: 21 AHR-related, cardiac stress-related and oxidative stress gene transcripts
AHR2 = biological target: T1, AHR2 (Danio rerio, UniProt Q9YGV3); test: Antisense morpholino knockdown of AHR2 in Tg; type: in vivo, zebrafish; conditions: for expression in the skin and vasculature in AHR2 morphants: not shown
T1 sequence (Q9YGV3 1-1027): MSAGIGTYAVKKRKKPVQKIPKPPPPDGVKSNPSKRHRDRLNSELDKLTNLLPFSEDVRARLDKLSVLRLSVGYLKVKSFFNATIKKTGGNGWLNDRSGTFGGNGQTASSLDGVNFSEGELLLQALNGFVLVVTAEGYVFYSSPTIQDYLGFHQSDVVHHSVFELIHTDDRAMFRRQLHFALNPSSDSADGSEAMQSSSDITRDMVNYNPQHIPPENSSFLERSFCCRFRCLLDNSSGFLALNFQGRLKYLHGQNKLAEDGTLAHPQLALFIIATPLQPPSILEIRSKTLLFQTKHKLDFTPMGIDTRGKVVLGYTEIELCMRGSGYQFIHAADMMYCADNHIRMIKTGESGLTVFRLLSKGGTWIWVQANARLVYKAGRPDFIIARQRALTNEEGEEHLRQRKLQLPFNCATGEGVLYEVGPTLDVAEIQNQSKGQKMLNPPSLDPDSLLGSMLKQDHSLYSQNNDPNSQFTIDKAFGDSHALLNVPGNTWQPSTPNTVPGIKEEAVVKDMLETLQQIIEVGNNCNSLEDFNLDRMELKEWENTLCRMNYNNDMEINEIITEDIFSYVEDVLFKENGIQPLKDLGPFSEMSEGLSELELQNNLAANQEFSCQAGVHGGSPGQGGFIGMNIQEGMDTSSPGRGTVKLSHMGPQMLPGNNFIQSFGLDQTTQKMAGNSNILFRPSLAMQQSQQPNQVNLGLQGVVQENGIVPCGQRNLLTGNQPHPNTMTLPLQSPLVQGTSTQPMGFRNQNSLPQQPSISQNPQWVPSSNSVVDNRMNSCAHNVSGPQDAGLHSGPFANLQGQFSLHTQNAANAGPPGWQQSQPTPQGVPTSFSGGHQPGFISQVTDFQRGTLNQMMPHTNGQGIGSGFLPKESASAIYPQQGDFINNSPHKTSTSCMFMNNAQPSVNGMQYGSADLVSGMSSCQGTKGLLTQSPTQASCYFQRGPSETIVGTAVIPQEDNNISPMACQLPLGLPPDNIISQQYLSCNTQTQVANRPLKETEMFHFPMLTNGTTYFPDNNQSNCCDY

cyp1a = conditions: transgenic Japanese Medaka; ref Ng and Gong, 2013; cited from earlier work
cyp1a/GFP = conditions: ref Goodale et al., 2015; cited from earlier work
arg2 = conditions: 48 hpf embryos; dependent on AHR2; ref Goodale et al., 2015; cited from earlier work

For `O=[N+]([O-])c1ccc2c3c(cccc13)-c1ccccc1-2` [3-nitrofluoranthene], the “cyp1a/GFP expression in the yolk after injection with any of the morpholinos” value [1] was “did not appear to decrease”.
With `O=[N+]([O-])c1cc2ccccc2c2ccccc12` [9-nitrophenanthrene] the “cyp1a/GFP expression in the livers in AHR1A morphants” value (“cyp1a/GFP expression in the livers” for short) (AHR1A) was “eliminated”.
With `c1ccc2c(c1)oc1ccccc12` [Dibenzofuran] the “EC50, calculated value beyond the range of concentrations tested” value (“EC50, calculated value beyond the range” for short) (zebrafish embryos [2]) was “beyond the tested range of concentrations” and the EC50 (zebrafish embryos [3]) was 228 µM.
With `O=[N+]([O-])c1ccc2ccc3c([N+](=O)[O-])ccc4ccc1c2c43` [1,6-dinitropyrene] the “expression of cyp1a, cyp1b1, cyp1c1, and cyp1c2” value ([4]; 5 µM, at 48 and 120 hpf, vs DMSO control) was “Significantly increased expression”, the “expression of cyp1a1, increase” value ([4]; 48 hpf, compared to the DMSO exposed controls) was 1,963 fold and the “expression of arg2” value ([4]; 120 hpf) was “significantly increased expression”. For the same compound, the “cyp1a/GFP expression in the vasculature and/or skin (and neuromasts, for 7-nitrobenzo[k]fluoranthene) following knockdown of AHR2” value (from here on “cyp1a/GFP expression … of AHR2”) (AHR2) was “near-complete inhibition”, the “toxicity in AHR2 morphants” value (AHR2) was “Decreased toxicity” and the “expression in the skin and vasculature in AHR2 morphants” value (AHR2) was “reduced”.
In the case of `Clc1cc2c(cc1Cl)Oc1cc(Cl)c(Cl)cc1O2` [TCDD], the “expression of cyp1a in the neuromasts” value (cyp1a) is listed as “observed previously”.
With `O=[N+]([O-])c1cc([N+](=O)[O-])c2ccc3cccc4ccc1c2c43` [1,3-dinitropyrene] the “cyp1a/GFP expression in the yolk after injection with any of the morpholinos” value [1] was “did not appear to decrease”, the “expression of nppb, increase” value ([4]; 3.56 µM, 120 hpf) was 23 fold and the “expression of myl7, significant increase” value ([4]; 48 hpf) was 2 fold. The “number of differentially expressed genes” value ([4]; 48 hpf, suite of 21 genes) was 4.
In the case of `O=C1c2ccccc2-c2cccc3cccc1c23` [1,9-benz-10-anthrone], the “cyp1a/GFP expression in the syncytial layer of the yolk” value (cyp1a/GFP) is listed as “previously observed” and the arg2 expression (arg2) is listed as “significantly elevated”.
With `O=[N+]([O-])c1ccc2c3c(cccc13)CC2` [5-nitroacenaphthalene] the “expression of arg2” value ([4]; 120 hpf) was “significantly increased expression”, the “observed developmental toxicity in AHR1A morphants” value (AHR1A) was “did not result in a substantial decrease” and the “cyp1a/GFP expression in the livers” value (AHR1A) was “eliminated”.
In the case of `O=[N+]([O-])c1c2c(cc3ccccc13)-c1cccc3cccc-2c13` [7-nitrobenzo[k]fluoranthene], the “expression of cyp1a, cyp1b1, and cyp1c1” value ([4]; 50 µM, at 120 hpf, vs DMSO control) is reported as “Significantly increased expression”, the “expression of arg2” value ([4]; 120 hpf) is reported as “significantly increased expression” and the “cyp1a/GFP expression in the livers” value (AHR1A) is reported as “eliminated”. For the same compound, the “cyp1a/GFP expression … of AHR2” value (AHR2) was “near-complete inhibition” and the “GFP expression in AHR2 morphants, skin and neuromasts” value (AHR2; at both 48 and 120 hpf) was “Decreased GFP expression”.
For `O=[N+]([O-])c1c2ccccc2cc2c1ccc1ccccc12` [7-nitrobenz[a]anthracene], the “EC50, calculated value beyond the range” value (zebrafish embryos [2]) was “beyond the tested range of concentrations”, the EC50 (zebrafish embryos [3]) was 238 µM and the “cyp1a/GFP expression … of AHR2” value (AHR2) was “near-complete inhibition”. The “GFP expression in AHR2 morphants, vasculature” value (AHR2; at both 48 and 120 hpf) was “Decreased GFP expression”.
With `O=[N+]([O-])c1ccc2cc3ccccc3cc2c1` [2-nitroanthracene] the “EC50, calculated value beyond the range” value (zebrafish embryos [2]) was “beyond the tested range of concentrations”.
With `O=[N+]([O-])c1c2c(cc3ccccc13)-c1ccc([N+](=O)[O-])c3cccc-2c13` [3,7-dinitrobenzo[k]fluoranthene] the “cyp1a/GFP expression … of AHR2” value (AHR2) was “near-complete inhibition” and the “expression in the skin and vasculature in AHR2 morphants” value (AHR2) was “reduced”.
